The results in this text go back to ChEMBL document CHEMBL6078639, “Andrographolide: A promising therapeutic agent against organ fibrosis” (Eur J Med Chem, 2024).

Format in all cases: ADME, organism-based
Common to all, as to settings: in vivo

Data set [1] can be described thus: Tmax in Wistar rat at 20 mg/kg, […] by LC-MS/MS analysis.
Data set [2] is described as follows: Oral bioavailability in human.
Data set [3] can be described thus: Tmax in Wistar rat at 200 mg/kg, […] by LC-MS/MS analysis.
The nature of data set [4]: Oral bioavailability in Wistar rat at 20 mg/kg by LC-MS/MS analysis.

As for `C=C1CC[C@@H]2[C@](C)(CO)[C@H](O)CC[C@@]2(C)[C@@H]1C/C=C1/C(=O)OC[C@H]1O` [ANDROGRAPHOLIDE], the time of peak concentration (Tmax) turned out to be 1.04 h in data set [1] and 39.6 min in data set [3]. Also, the bioavailability in data set [2] is 2.67%; in data set [4], 61.2%.
